In paper PMC7464785 (Pharmaceutics, 2020):
“And” between values parts separate entries of the source, which are not always exact repeats. Equal entries are not always repeated. Where two headings read alike, the source gives them in different places.

Columns and labels:
[1] = intravenous doses over 20 mg/kg and oral doses over 50 mg/kg; cited from earlier work
plasma proteins [2] = assay: Plasma protein binding by equilibrium dialysis; format: in vitro ADME; conditions: plasma from control, G-ARF and C-ARF rats; data not shown
plasma proteins [3] = conditions: equilibrium dialysis; cited from earlier work
[4] = Pharmacokinetics after oral administration to control, G-ARF and C-ARF rats; format: in vivo, Sprague–Dawley rats; conditions: for CL renal: read-out: CLR (time-averaged renal clearance); for bioavailability: read-out: F (absolute oral bioavailability)
Experimental: (§1) Rats were randomly divided into three groups: control, G-ARF, and C-ARF rats. Acute renal failure was induced in rats by intraperitoneal injection of gentamicin (100 mg/kg, dissolved in 0.9% NaCl-injectable solution) daily for 8 days or by a single intraperitoneal injection of cisplatin (7.5 mg/kg, dissolved in 0.9% NaCl-injectable solution), while control rats were injected with 0.9% NaCl-injectable solution only. […] BUN (Blood urea nitrogen) levels were measured in rats on the last day of induction using a BUN detection kit (Asan Pharmaceutical, Seoul, Korea). Rats with a urea nitrogen level of 36 mg/dL or higher were considered to be acute renal failure-induced and were selected for the study.
(§2) For oral and intravenous administration, pretreatment and surgical procedures were performed as previously reported. For oral study, the rats were restricted from eating food overnight but water was freely accessible. The next day, after anesthesia with ketamine at a dose of 100 mg/kg, polyethylene 50 tubes (Clay Adams, Parsippany, NJ, USA) was cannulated into the carotid artery for blood collection. For intravenous study, polyethylene 50 tubes were cannulated into the carotid artery and jugular vein for blood collection and drug administration, respectively. After surgery, rats were allowed to rest for 2–3 h to recover from anesthesia and were free in the individual metabolic cage during the experiment.
Blood samples (110 µL) were collected through the carotid artery at 0 (prior to drug administration), 5, 15, 30, 45, 60, 90, 120, 180, 240, 360, 480, 600, and 720 min. At 24 h after drug administration, urine and gastrointestinal tract samples were collected and handled similarly to those in the intravenous study.
(§3) A 50-μL aliquot of biological sample was mixed with 1 μL hydrocortisone (5 mg/mL); then, 20 μL of 20% ammonia solution was added, mixed with a vortex-mixer (Scientific Industries, Bohemia, NY, USA) for 30 s, and extracted with 750 µL ethyl acetate. The organic layer was collected, evaporated on a thermobath (Eyela, Tokyo, Japan) under a gentle stream of nitrogen gas at 40 °C and redissolved by adding 130 µL 20% acetonitrile, and 50 µL of each reconstituted sample was analyzed by HPLC [12, 22].
(§4) The reconstituted biological samples were filtered through a 0.45-µm filter (Millipore, Billerica, MA, USA) and analyzed with a reversed-phase column (C18; 25 cm × 4.6 mm, 5 µm; Young Jin Biochrom, Seongnam, Korea) using a UV detector at 287 nm. The mobile phase consisted of 10 mM ammonium acetate buffer (pH 5.0) and acetonitrile at a ratio of 69.5:30.5 (v/v) with a flow rate of 1.0 mL/min.
(§5) To estimate pharmacokinetic parameters such as terminal half-life, the apparent volume of distribution at steady state (Vss), area under plasma concentration-time curves from time zero to time infinity (AUC), mean residence time (MRT), and time-averaged total body (CL), and renal (CLR) and nonrenal (CLNR) clearances, standard methods were applied using noncompartmental analysis (WinNonlin, Pharsight Corporation, Mountain View, CA, USA). AUCs were calculated using the trapezoidal rule-extrapolation method. The peak plasma concentration (Cmax) and time that the plasma concentration was peak (Tmax) were directly confirmed from plasma concentration-time curves. To calculate the average values of clearances, terminal half-life, and Vss, the harmonic mean method was applied.

[5] = Pharmacokinetics after 1-min intravenous infusion to control, G-ARF and C-ARF rats; format: in vivo, Sprague–Dawley rats; conditions: for CLR estimated from free (unbound to plasma proteins) fractions in plasma: based on 20.7% plasma protein binding; for MRT / clearance / CL renal / half-life / Vd / AUC: Sprague-Dawley, rat, plasma, iv, 10 mg/kg; for clearance: read-out: CL (time-averaged total body clearance); for CL renal: read-out: CLR (time-averaged renal clearance); for half-life: read-out: Terminal half-life; for Vd: read-out: Vss; for AUC: time zero to infinity
Experimental: as §1, §2
Blood samples (110 μL) were collected through the carotid artery at 0 (prior to drug infusion), 1 (at the end of drug infusion), 5, 15, 30, 45, 60, 90, 120, 180, 240, 360, 480, 600, and 720 min and were centrifuged at 8000 × g for 1 min. […] After collecting each blood sample, 0.3 mL of heparinized 0.9% NaCl-injectable solution (10 IU/mL) was immediately administered to the carotid artery to prevent blood clotting. At 24 h, the rat’s abdomen was open and the entire gastrointestinal tract was removed, transferred to a beaker with 50 mL of methanol, and cut into small pieces.
At 24 h after drug administration, urine samples were also collected. The metabolic cage was rinsed with 20 mL of distilled water, which was combined with the 24-h urine sample.
as §3, §4
as §5, with “curves.” for “curves. To calculate the average values of clearances, terminal half-life, and Vss, the harmonic mean method was applied.”

[6] = cited from earlier work
[7] = hepatic microsomes of G-ARF rats, not significantly different
[8] = Sprague-Dawley, rat, plasma, po, 20 mg/kg, C-ARF rats
[9] = Sprague-Dawley, rat, plasma, po, 20 mg/kg, G-ARF rats
[10] = Sprague-Dawley, rat, plasma, po, 20 mg/kg, control rats
[11] = control rats, oral 20 mg/kg, 20 mg/kg

SMILES: C[C@@H]1CCN(C(=O)CC#N)C[C@@H]1N(C)c1ncnc2[nH]ccc12 [tofacitinib, Tofacitinib]
- dose proportionality of AUCs [1]: not dose proportional
- free fractions in the plasma, comparison of groups (plasma proteins [2]): comparable
- decrease of Vmax for the disappearance of tofacitinib versus control rats (hepatic microsomes; hepatic microsomes of C-ARF rats, not significantly different): 28.7%
- decrease of CLint for the disappearance of tofacitinib versus control rats (hepatic microsomes; hepatic microsomes of C-ARF rats, significantly lower): 54.4%
- decrease of CLint for the disappearance of tofacitinib versus control rats (hepatic microsomes; [7]): 31.1%
- decrease of Vmax for the disappearance of tofacitinib versus control rats (hepatic microsomes; [7]): 9.52%
- Km values, comparison of groups (hepatic microsomes; hepatic microsomes of control, G-ARF and C-ARF rats): comparable among the three groups
- plasma protein binding (plasma proteins [3]): 20.7%
- Ae0–24 h (dose excreted in the 24-h urine) ([4]; C-ARF rats, oral 20 mg/kg): 1.16 ± 1.37 % of dose
- decrease of Ae0–24 h versus control rats ([4]; C-ARF rats, oral 20 mg/kg): 81.3%
- increase of AUC versus control rats ([4]; C-ARF rats, oral 20 mg/kg): 247%
- increase of Cmax versus control rats ([4]; C-ARF rats, oral 20 mg/kg): 141%
- GI24 h (dose remaining in the gastrointestinal tract at 24 h) ([4]; C-ARF rats, oral 20 mg/kg, 20 mg/kg): 0.505 % of dose and 0.505 ± 0.535 % of dose
- Ae0–24 h (dose excreted in the 24-h urine) ([4]; G-ARF rats, oral 20 mg/kg): 4.82 ± 3.06 % of dose
- decrease of Ae0–24 h versus control rats ([4]; G-ARF rats, oral 20 mg/kg): 22.4%
- decrease of CLR versus control rats ([4]; G-ARF rats, oral 20 mg/kg): 69.8%
- increase of AUC versus control rats ([4]; G-ARF rats, oral 20 mg/kg): 142%
- increase of Cmax versus control rats ([4]; G-ARF rats, oral 20 mg/kg): 198%
- GI24 h (dose remaining in the gastrointestinal tract at 24 h) ([4]; G-ARF rats, oral 20 mg/kg, 20 mg/kg): 1.27 % of dose and 1.27 ± 1.72 % of dose
- AUC [4, 8]: 12500 ng·h/mL
- Tmax [4, 8]: 41.3 min
- CL renal [4, 8]: 0.3 ± 0.495 mL/min/kg
- Cmax ([4]; Sprague-Dawley, rat, plasma, po, 20 mg/kg, C-ARF rats, read-out: Cmax): 4200 ± 3030 ng/mL
- bioavailability [4, 8]: 54.3%
- AUC [4, 9]: 8750 ng·h/mL
- Tmax [4, 9]: 30.8 min
- CL renal [4, 9]: 1.71 ± 0.871 mL/min/kg
- Cmax ([4]; Sprague-Dawley, rat, plasma, po, 20 mg/kg, G-ARF rats, read-out: Cmax): 5180 ± 2590 ng/mL
- bioavailability [4, 9]: 60.7%
- AUC [4, 10]: 3620 ng·h/mL
- Tmax [4, 10]: 71.9 min
- CL renal [4, 10]: 5.66 ± 1.03 mL/min/kg
- bioavailability [4, 10]: 41.3%
- GI24 h ([4]; across control, G-ARF and C-ARF rats, oral 20 mg/kg): less than 1.27 % of oral dose
- Cmax ([4]; control rats, oral 20 mg/kg): 1740 ± 606 ng/mL
- Ae0–24 h (dose excreted in the 24-h urine) [4, 11]: 6.21 % of dose and 6.21 ± 1.12 % of dose
- GI24 h (dose remaining in the gastrointestinal tract at 24 h) [4, 11]: 0.231 % of dose and 0.231 ± 0.235 % of dose
- Ae0–24 h (dose excreted in the 24-h urine) ([5]; C-ARF rats, iv 10 mg/kg): 0.458 ± 0.626 % of dose
- GI24 h (dose remaining in the gastrointestinal tract at 24 h) ([5]; C-ARF rats, iv 10 mg/kg): 0.195 ± 0.157 % of dose
- decrease of Ae0–24 h versus control rats ([5]; C-ARF rats, iv 10 mg/kg): 95.2%
- decrease of CL versus control rats ([5]; C-ARF rats, iv 10 mg/kg): 62.3%
- decrease of CLNR versus control rats ([5]; C-ARF rats, iv 10 mg/kg): 57.4%
- decrease of CLR versus control rats ([5]; C-ARF rats, iv 10 mg/kg): 98.6%
- increase of AUC versus control rats ([5]; C-ARF rats, iv 10 mg/kg): 163%
- increase of MRT versus control rats ([5]; C-ARF rats, iv 10 mg/kg): 154%
- increase of terminal half-life versus control rats ([5]; C-ARF rats, iv 10 mg/kg): 240%
- CLR estimated from free (unbound to plasma proteins) fractions in plasma ([5]; C-ARF rats, iv 10 mg/kg): 0.0856 mL/min/kg
- Ae0–24 h (dose excreted in the 24-h urine) ([5]; G-ARF rats, iv 10 mg/kg): 5.92 ± 2.76 % of dose
- GI24 h (dose remaining in the gastrointestinal tract at 24 h) ([5]; G-ARF rats, iv 10 mg/kg): 0.00919 ± 0.0225 % of dose
- decrease of Ae0–24 h versus control rats ([5]; G-ARF rats, iv 10 mg/kg): 37.7%
- decrease of CL versus control rats ([5]; G-ARF rats, iv 10 mg/kg): 37.7%
- decrease of CLNR versus control rats ([5]; G-ARF rats, iv 10 mg/kg): 33.2%
- decrease of CLR versus control rats ([5]; G-ARF rats, iv 10 mg/kg): 69.5%
- increase of AUC versus control rats ([5]; G-ARF rats, iv 10 mg/kg): 64.0%
- increase of MRT versus control rats ([5]; G-ARF rats, iv 10 mg/kg): 96.7%
- increase of terminal half-life versus control rats ([5]; G-ARF rats, iv 10 mg/kg): 78.7%
- CLR estimated from free (unbound to plasma proteins) fractions in plasma ([5]; G-ARF rats, iv 10 mg/kg): 1.83 mL/min/kg
- MRT ([5]; C-ARF rats): 69.1 min
- clearance ([5]; C-ARF rats): 14.7 ± 2.29 mL/min/kg
- CL renal ([5]; C-ARF rats): 0.0679 ± 0.0917 mL/min/kg
- half-life ([5]; C-ARF rats): 134 ± 40.9 min
- Vd ([5]; C-ARF rats): 1 ± 0.558 L/kg
- AUC ([5]; C-ARF rats): 11600 ng·h/mL
- MRT ([5]; G-ARF rats): 53.5 min
- clearance ([5]; G-ARF rats): 24.3 ± 6.95 mL/min/kg
- CL renal ([5]; G-ARF rats): 1.45 ± 1.54 mL/min/kg
- half-life ([5]; G-ARF rats): 70.4 ± 29.6 min
- Vd ([5]; G-ARF rats): 1.17 ± 0.519 L/kg
- AUC ([5]; G-ARF rats): 7220 ng·h/mL
- MRT ([5]; control rats): 27.2 min
- clearance ([5]; control rats): 39 ± 7.97 mL/min/kg
- half-life ([5]; control rats): 39.4 ± 11.3 min
- Vd ([5]; control rats): 1.04 ± 0.402 L/kg
- AUC ([5]; control rats): 4400 ng·h/mL
- Ae0–24 h (dose excreted in the 24-h urine) ([5]; control rats, iv 10 mg/kg): 9.51 ± 0.879 % of dose
- CLR (time-averaged renal clearance) ([5]; control rats, iv 10 mg/kg): 4.75 ± 1.28 mL/min/kg
- GI24 h (dose remaining in the gastrointestinal tract at 24 h) ([5]; control rats, iv 10 mg/kg): 0.153 ± 0.306 % of dose
- CLR estimated from free (unbound to plasma proteins) fractions in plasma ([5]; control rats, iv 10 mg/kg): 5.99 mL/min/kg
- half-life ([6]; healthy volunteers, oral 10 mg): 192 min
- oral dose bound to plasma protein ([6]; healthy volunteers, oral 10 mg): Approximately 40%
- volume of distribution ([6]; healthy volunteers, oral 10 mg): 87 L
- Absolute oral bioavailability (F) ([6]; human): approximately 74%
